Results on one substance are retold here after patent US9211313B2, “Methods and compound to inhibit Ca2+ permeable cation conductance” (priority 2011, dated 2015).

Common to all, as to assay type: cell-based
The subject of assay [1] is SAD sickle mouse red cells. Nature of the assay: Fluo-3 fluorescence measurement of [Ca2+]i during deoxygenation, SAD cells. The settings on record: 1 μM; SAD red cells. As to the method:
Blood was withdrawn by cardiac puncture or from the tail vein of C57B16/J wildtype mice, SAD sickle mice, or Berkeley sickle mice into heparinized syringes by IACUC-approved protocols of Beth Israel Deaconess Medical Center. Buffy coat-depleted cells were washed 5 times in standard mouse red cell wash solution containing (in mM) 172 choline Cl, 10 sucrose, 10 Na Tris-MOPS, pH 7.4, resuspended in storage solution, and kept at 4° C. until use.
(§1) Fluorescence measurements of cytosolic [Ca^2+] ([Ca^2+]i): After removal of plasma and buffy coat by aspiration, human or mouse red cells were washed three times at room temperature and suspended in modified Hank's solution containing (in mM), 137 NaCl, 5.4 KCl, 1 CaCl2, 1 MgCl2, 0.8 NaK phosphate, 5.6 glucose, and 10 Na HEPES, pH 7.4. Dilute cell suspensions were settled on polylysine-coated coverslips forming the bottom of an open perfusion chamber (2.5 cm diameter, 1 cm depth) and washed again 3 times.
Measurement of relative changes in [Ca^2+]i by Fluo-3 fluorescence emission was previously validated in intact human (Yang et al. 2000, Blood, 95(7):2421-2425; Andrews et al. 2002, Blood, 199(9):3392-3399) and mouse red cells (Akel et al. 2007, Amer. J. Physiol., 292(5):C1759-1767). Attached red cells were loaded in the dark with the fluorescent non-ratiometric Ca^2+ indicator Fluo-3-AM (10 μM, Molecular Probes, Eugene, Oreg.) at 37° C. for 1 hr, then washed and incubated 15 min further to allow de-esterification of intracellular dye. The open perfusion chamber containing dye-loaded cells was mounted on an Olympus IMT-2 inverted epifluorescence microscope equipped with CoolSNAP CCD camera (Photometrics, Tucson, Ariz.). Fluo-3 in cells imaged through a 60× objective was excited by mercury-xenon illumination passed through a 495ds20 filter. Fluorescence emission (proportional to [Ca^2+]i) from a 535ds20 bandpass filter was collected from all attached single cells within the arbitrarily selected visual field. Emission image acquisition was controlled by a Metafluor digital imaging system (Universal Imaging, West Chester, Pa.).
(§2) Fluo-3 fluorescence from attached cells on each coverslip was recorded 60 sec in room air and then for 10 min after onset of perfusion chamber flushing with humidified 100% N2. The normalized increase in Fluo-3 fluorescence in SS cells subjected to this deoxygenation procedure was indistinguishable from that observed during superfusion of cells in a closed perfusion chamber via syringe pump with bath previously bubbled for 60 min with 100% N2 (n=62 cells from 2 SS patients, not shown). The y-axis value of 0% change in Fluo-3 fluorescence intensity represented mean intensity recorded from all cells within the coverslip visual field during the 60 sec prior to deoxygenation.

For another assay, the system named is human SS red cells. Briefly: Fluo-3 fluorescence measurement of [Ca2+]i during deoxygenation, human SS cells. The settings on record: 1 μM, 10 min pretreatment and continued presence in bath. On the procedure: Blood cell preparation: Human SS and AA blood was obtained under IRB-approved protocols of Children's Hospital and Beth Israel Deaconess Medical Center. After buffy coat removal and 5 washes in standard human red cell wash solution containing (in mM) 150 choline Cl, 1 MgCl, and 10 Tris-MOPS, pH 7.4, red cells were resuspended in storage solution containing (in mM) 145 KCl, 15 NaCl, and 10 HEPES, pH 7.4, then kept at 4° C. until used. Human red cells allowed to settle on coverslips were mounted on an inverted microscope in a 200 μl open chamber (WPI, Sarasota, Fla.) and superfused 15 min at room temperature by bath solution containing (in mM) 150 Na methanesulfonate, 10 Na EDTA, and 10 Na HEPES, pH 7.4.
Washed human or mouse red cells in solution containing (in mM) 140 NaCl, 5 KCl, 1 CaCl2, 1 MgCl2, 10 Na HEPES, pH 7.4 were exposed for 1 hr on a rotary platform in a 37° C. incubator to 25 ppm carbon monoxide (CO) in 5% CO2. CO-exposed cells were then subjected to patch clamp or to calcium imaging experiments within 60 min after return to room air, using the solutions indicated.
as §1
Measurement of relative changes in [Ca^2+]i by Fluo-3 fluorescence emission was previously validated in intact human (Yang et al. 2000, Blood, 95(7):2421-2425; Andrews et al. 2002, Blood, 199(9):3392-3399) and mouse red cells (Akel et al. 2007, Amer. J. Physiol., 292(5):C1759-1767). […] Fluorescence emission (proportional to [Ca^2+]i) from a 535ds20 bandpass filter was collected from all attached single cells within the arbitrarily selected visual field. […]
as §2

For another assay, the target named is T1, KCa3.1 (Homo sapiens, UniProt O15554).
T1 construct: KCa3.1 activity stimulated in intact human AA cells by 1 μM A23187; endogenous in cells; host or cells: intact human AA red blood cells
T1 sequence (O15554 whole entry): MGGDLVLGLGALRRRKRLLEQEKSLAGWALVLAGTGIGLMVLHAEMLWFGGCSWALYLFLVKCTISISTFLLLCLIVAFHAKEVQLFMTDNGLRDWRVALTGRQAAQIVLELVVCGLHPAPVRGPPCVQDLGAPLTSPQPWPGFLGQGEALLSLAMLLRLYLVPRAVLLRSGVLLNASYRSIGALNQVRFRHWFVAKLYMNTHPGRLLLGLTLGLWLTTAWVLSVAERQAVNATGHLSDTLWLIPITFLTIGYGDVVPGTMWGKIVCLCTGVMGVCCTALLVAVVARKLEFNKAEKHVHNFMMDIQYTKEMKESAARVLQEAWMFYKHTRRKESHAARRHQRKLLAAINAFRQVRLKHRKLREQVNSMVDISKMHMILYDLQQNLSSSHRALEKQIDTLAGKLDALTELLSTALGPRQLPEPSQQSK
The following applies: 1 μM; intact human AA cells, 1 μM A23187, extracellular Ca2+; n=3.

For “Grammastola spatulata mechanotoxin 4 (GCLEFWWKCNPNDDKCCRPKLKCSKLFKLCNFSF; listed as Grammastola spatulata) [GsMTx-4]”, in assay [1], the “effect on increased [Ca2+]i accompanying deoxygenation” value was “completely inhibited”. For the same substance, the “effect on [Ca2+]i elevation by deoxygenation” value is reported as “prevented” with human SS red cells, “nearly completely block” in the assay with human SS red cells (listed as GsMTx4) and “blocked” in the assay on human SS red cells (listed as GsTMx-4). Besides, in the assay with KCa3.1, the “effect on KCa3.1 activity, cell shrinkage” value is “no effect”.
